How the values were obtained:
Test in all cases: relative viability (nuclei count vs DMSO), 5 days (fraction); higher = more cells survive
[1] = compound: CC1=CC(=CC=C1)NC2=NC(=CS2)C3=CC=NC=C3 + Cc1nc(NC(=O)N2CCC[C@H]2C(N)=O)sc1-c1ccnc(C(C)(C)C(F)(F)F)c1 [Alpelisib] (partner 2 µM)
Procedure, shortened: (§1)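 Lung cancer cell lines in 1536-well plates got either a single drug or a fixed anchor-drug dose together with five library-drug doses (not always all listed) in √10 steps, by pin tool, on the day after seeding. Nuclei were counted after 5 days, and relative viability is the treated-to-vehicle ratio of nuclei counts. Values are medians of duplicate plates.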

Masitinib + Palbociclib = compound: Cc1ccc(NC(=O)c2ccc(CN3CCN(C)CC3)cc2)cc1Nc1nc(-c2cccnc2)cs1 [Masitinib] + CC(=O)c1c(C)c2cnc(Nc3ccc(N4CCNCC4)cn3)nc2n(C2CCCC2)c1=O [Palbociclib] (partner 0.5 µM)
Procedure, shortened: as §1

Masitinib + AZD7762 = compound: Cc1ccc(NC(=O)c2ccc(CN3CCN(C)CC3)cc2)cc1Nc1nc(-c2cccnc2)cs1 [Masitinib] + NC(=O)Nc1cc(-c2cccc(F)c2)sc1C(=O)N[C@H]1CCCNC1 [AZD7762] (partner 0.2 µM)
Procedure, shortened: as §1

Masitinib + Bortezomib = compound: Cc1ccc(NC(=O)c2ccc(CN3CCN(C)CC3)cc2)cc1Nc1nc(-c2cccnc2)cs1 [Masitinib] + CC(C)C[C@H](NC(=O)[C@H](Cc1ccccc1)NC(=O)c1cnccn1)B(O)O [Bortezomib] (partner 0.002 µM)
Procedure, shortened: as §1

Row | Cell Line | relative viability ([1]; first compound 0.08 µM) | relative viability ([1]; first compound 0.253 µM) | relative viability ([1]; first compound 0.8 µM) | relative viability ([1]; first compound 2.53 µM) | relative viability ([1]; first compound 8 µM) | relative viability (Masitinib + Palbociclib; first compound 0.01 µM) | relative viability (Masitinib + Palbociclib; first compound 0.03162 µM) | relative viability (Masitinib + Palbociclib; first compound 0.1 µM) | relative viability (Masitinib + Palbociclib; first compound 0.3162 µM) | relative viability (Masitinib + Palbociclib; first compound 1 µM) | relative viability (Masitinib + AZD7762; first compound 0.01 µM) | relative viability (Masitinib + AZD7762; first compound 0.03162 µM) | relative viability (Masitinib + AZD7762; first compound 0.1 µM) | relative viability (Masitinib + AZD7762; first compound 0.3162 µM) | relative viability (Masitinib + AZD7762; first compound 1 µM) | relative viability (Masitinib + Bortezomib; first compound 0.01 µM) | relative viability (Masitinib + Bortezomib; first compound 0.03162 µM) | relative viability (Masitinib + Bortezomib; first compound 0.1 µM) | relative viability (Masitinib + Bortezomib; first compound 0.3162 µM) | relative viability (Masitinib + Bortezomib; first compound 1 µM)
1 | NCI-H358 | 0.662 | 0.772 | 0.645 | 0.929 | 0.791 | 0.123 | 0.138 | 0.15 | 0.133 | 0.136 | 0.524 | 0.491 | 0.548 | 0.509 | 0.414 |  |  |  |  | 
2 | EBC-1 | 0.644 | 0.744 | 0.773 | 0.809 | 0.712 |  |  |  |  |  |  |  |  |  |  | 0.493 | 0.518 | 0.514 | 0.479 | 0.573
3 | NCI-H2009 | 1.08 | 1.16 | 1.11 | 1.24 | 1.21 | 0.207 | 0.214 | 0.236 | 0.17 | 0.204 |  |  |  |  |  | 0.666 | 1.1 | 0.887 | 0.894 | 0.939
4 | NCI-H1563 | 0.881 | 0.94 | 0.968 | 0.98 | 0.828 |  |  |  |  |  |  |  |  |  |  | 0.778 | 0.789 | 0.905 | 0.81 | 0.713
5 | NCI-H2342 |  |  |  |  |  | 0.532 | 0.524 | 0.566 | 0.507 | 0.529 | 0.51 | 0.402 | 0.427 | 0.508 | 0.456 |  |  |  |  | 
6 | ChaGo-K-1 |  |  |  |  |  | 0.954 | 0.952 | 0.966 | 0.972 | 0.897 | 0.928 | 0.916 | 0.946 | 0.823 | 0.806 | 1.04 | 1.05 | 1.35 | 1.12 | 0.962
7 | NCI-H661 | 0.469 | 0.462 | 0.971 | 0.724 | 1.01 | 0.331 | 0.374 | 0.363 | 0.372 | 0.377 |  |  |  |  |  | 0.867 | 0.74 | 0.927 | 0.761 | 0.585
8 | COR-L23 | 0.607 | 0.609 | 0.508 | 0.611 | 0.71 | 0.296 | 0.257 | 0.298 | 0.329 | 0.279 |  |  |  |  |  | 0.924 | 0.806 | 1.11 | 1.26 | 0.972
9 | COR-L 105 | 0.956 | 0.794 | 0.869 | 0.773 | 0.715 | 0.422 | 0.394 | 0.435 | 0.382 | 0.348 |  |  |  |  |  | 0.695 | 0.699 | 0.823 | 0.823 | 0.725
10 | LK-2 | 0.898 | 1.09 | 1.33 |  | 1.19 | 0.691 | 0.697 | 0.666 | 0.76 | 0.762 | 0.4 | 0.346 | 0.692 | 0.525 | 0.302 |  |  |  |  | 
11 | NCI-H2170 | 0.706 | 0.691 | 0.639 | 0.707 | 0.555 | 0.383 | 0.331 | 0.438 | 0.403 | 0.417 | 0.714 | 0.887 | 1.01 | 0.828 | 0.685 |  |  |  |  | 
12 | NCI-H1944 | 0.723 | 0.726 | 0.782 | 0.795 | 0.646 |  | 0.295 |  | 0.312 | 0.307 |  | 0.445 |  | 0.485 | 0.431 |  |  |  |  | 
13 | NCI-H596 | 0.421 | 0.402 | 0.35 | 0.412 | 0.401 |  |  |  |  |  | 1.24 | 0.978 | 1.07 | 1.1 | 0.973 | 1.09 | 1.06 | 1.2 | 1.01 | 1.23
14 | A549 | 0.778 | 0.693 | 0.913 | 0.758 | 0.673 |  |  |  |  |  |  |  |  |  |  |  |  |  |  | 
15 | NCI-H520 | 0.741 | 0.855 | 0.726 | 1.09 | 1.02 | 0.27 | 0.21 | 0.263 | 0.243 | 0.197 |  |  |  |  |  | 0.598 |  | 0.629 | 0.686 | 0.774
16 | SK-MES-1 | 0.626 | 0.862 | 0.893 | 0.853 | 0.848 | 0.306 | 0.269 | 0.318 | 0.302 | 0.336 |  |  |  |  |  |  |  |  |  | 
17 | NCI-H1650 |  |  |  |  |  | 0.242 | 0.321 | 0.254 | 0.298 | 0.376 |  |  |  |  |  | 0.198 | 0.172 | 0.186 | 0.215 | 0.212
18 | NCI-H1395 | 0.838 | 0.909 | 1.23 | 1.01 | 0.992 | 0.593 | 0.653 | 0.643 | 0.562 | 0.595 | 0.379 | 0.416 | 0.392 | 0.405 | 0.378 |  |  |  |  | 
19 | NCI-H2228 | 0.476 | 0.644 | 0.612 | 0.688 | 0.502 | 0.518 | 0.723 | 1.12 | 0.844 | 0.486 |  |  |  |  |  | 1.07 | 1.68 | 1.05 | 1.25 | 0.975
20 | NCI-H1299 | 1.04 | 1.01 | 1.05 | 1.05 | 0.988 |  |  |  |  |  |  |  |  |  |  | 0.985 | 1.05 | 0.995 | 1.01 | 1
21 | NCI-H2023 | 0.616 | 0.506 | 0.561 | 0.516 | 0.563 | 0.311 | 0.385 | 0.323 | 0.259 | 0.331 |  |  |  |  |  | 0.734 | 0.967 | 0.79 | 0.862 | 0.879
22 | SW 900 |  |  |  |  |  | 0.462 | 0.458 | 0.575 | 0.502 | 0.513 | 0.664 | 0.548 | 0.568 | 0.574 | 0.576 |  |  |  |  | 
23 | IA-LM | 0.706 |  | 0.815 | 0.533 | 0.673 |  |  |  |  |  |  |  |  |  |  | 0.85 | 0.975 | 0.836 | 0.681 | 1.05
24 | SW 1573 | 0.746 | 0.744 | 0.593 | 0.732 | 0.625 | 0.357 | 0.372 | 0.446 | 0.41 | 0.374 |  |  |  |  |  | 1.08 | 0.979 | 1.06 | 0.894 | 1
25 | NCI-H1648 |  |  |  |  |  | 0.297 | 0.313 | 0.289 |  | 0.228 | 0.567 | 0.678 | 0.711 |  | 0.679 |  |  |  |  | 

Reference: the supplement of paper PMC10307832
